Counter-ions that a name gives are not always drawn.
What was measured:
[1] = system: taenia caecum of guinea pig; assay: Calcium antagonistic effects: relaxation of CaCl2-induced contraction of K+-depolarized taenia caecum; assay type: cell-based; conditions: Cavia porcellus, relative to maximum relaxation by 10^-4 M papaverine, 10 mM CaCl2, 37° C., read-out: pID50 (pID50 = -log [ID50]), concentration producing 50% relaxation (converted)
Procedure: (1) Calcium antagonistic effects
Then, the preparation was depolarized by a K^+ rich solution (NaCl: 40 mM, KCl: 100 mM). After 10-20 minutes equilibration period, 10 mM of CaCl2 was added to the bathing solution. The contraction was produced, and then the test compound applied cumulatively.

[2] = system: male spontaneously hypertensive rat (SHR); assay: Antihypertensive effects: systolic blood pressure after oral administration to SHR, tail cuff method; assay type: in vivo; conditions: read-out: Antihypertensive effects, Maximum decrease (%)
Procedure: (2) Antihypertensive effects
After oral administration of the test compound dissolved in a H2 O-PEG 400 solvent mixture (H2 O:PEG 400 (w/w)=1:3) to the male spontaneously hypertensive rat (SHR), the systolic blood pressure was measured by a tail cuff method. Prior to the measurement, rats were warmed at 50° C. for five minutes.

[3] = Acute toxicity test (LD50) in mice; conditions: mouse, in vivo, male ddY mice, after seven days
Procedure: Test 2: Acute toxicity test
ddY mice (.male., 4 weeks old) were divided into groups of five mice and the test compound dissolved in purified water was administered orally (5% solution) or intraperitoneally (1% solution) to the male ddY mice.
After seven days, LD50 values were calculated from the dead […] recorded in the individual dosage groups by the method of Litchfield-Wilcoxon.

Row | Structure (SMILES) | EC50 [1] [nM] | inhibition in vivo at 20 mg/kg [2] [%] | inhibition in vivo at 10 mg/kg [2] [%] | other results
1 | COc1ccc([C@@H]2Sc3ccccc3N(CCN(C)C)C(=O)[C@@H]2OC(C)=O)cc1 [Diltiazem, reference compound] | 275 |  |  | inhibition in vivo at 60 mg/kg ([2]; dose 60 mg/kg): 10%
2 | CC1=C(C(=O)OCCN(C)Cc2ccccc2)C(c2cccc([N+](=O)[O-])c2)C(P2(=O)OC(C)CCC(C)O2)=C(C)N1 (stereo not drawn) [Hydrochloride of Example 1] | 7.08 | 50 |  | 
3 | CC1=C(C(=O)OCCN(C)Cc2ccccc2)C(c2ccccc2C(F)(F)F)C(P2(=O)OC(C)CCC(C)O2)=C(C)N1 (stereo not drawn) [Hydrochloride of Example 2] | 5.89 | 45 |  | 
4 | CC1=C(C(=O)OCCN(C)Cc2ccccc2)C(c2cccc(Cl)c2)C(P2(=O)OC(C)CCC(C)O2)=C(C)N1 (stereo not drawn) [Hydrochloride of Example 3] | 3.98 |  | 15 | 
5 | CC1=C(C(=O)OCCN(C)Cc2ccccc2)C(c2ccccc2Cl)C(P2(=O)OC(C)CCC(C)O2)=C(C)N1 (stereo not drawn) [Hydrochloride of Example 4] | 4.9 |  | 15 | 
6 | CC1=C(C(=O)OCCN(C)Cc2ccccc2)C(c2cccc([N+](=O)[O-])c2)C(P2(=O)OC(C)CC(C)O2)=C(C)N1 (stereo not drawn) [Hydrochloride of Example 5] | 2.45 | 50 |  | 
7 | CC1=C(C(=O)OCCN(C)Cc2ccccc2)C(c2ccccc2C(F)(F)F)C(P2(=O)OC(C)CC(C)O2)=C(C)N1 (stereo not drawn) [Hydrochloride of Example 6] | 4.47 |  |  | inhibition in vivo at 5 mg/kg ([2]; dose 5 mg/kg): 37%; LD50 at 168 h ([3]; ip, i.p. (1% solution)): 17 mg/kg; LD50 at 168 h ([3]; po, p.o. (5% solution)): 53 mg/kg
8 | CC1=C(C(=O)OCCN(C)Cc2ccccc2)C(c2cccc(Cl)c2)C(P2(=O)OC(C)CC(C)O2)=C(C)N1 (stereo not drawn) [Hydrochloride of Example 7] | 5.5 | 49 |  | LD50 at 168 h ([3]; ip, i.p. (1% solution)): 23 mg/kg; LD50 at 168 h ([3]; po, p.o. (5% solution)): 74 mg/kg
9 | CC1=C(C(=O)OCCN(C)Cc2ccccc2)C(c2ccccc2Cl)C(P2(=O)OC(C)CC(C)O2)=C(C)N1 (stereo not drawn) [Hydrochloride of Example 8] | 2.82 |  | 47 | 
10 | CC1=C(C(=O)OCCN2CCN(C(c3ccccc3)c3ccccc3)CC2)C(c2cccc([N+](=O)[O-])c2)C(P2(=O)OC(C)CC(C)O2)=C(C)N1 (stereo not drawn) [Hydrochloride of Example 9] | 29.5 | 36 |  | 
11 | CC1=C(C(=O)OCCN2CCN(C(c3ccccc3)c3ccccc3)CC2)C(c2ccccc2C(F)(F)F)C(P2(=O)OC(C)CC(C)O2)=C(C)N1 (stereo not drawn) [Hydrochloride of Example 10] | 57.5 | 46 |  | 
12 | CC1=C(C(=O)OCCN2CCN(C(c3ccccc3)c3ccccc3)CC2)C(c2ccccc2Cl)C(P2(=O)OC(C)CC(C)O2)=C(C)N1 (stereo not drawn) [Hydrochloride of Example 11] | 24.5 |  | 29 | 
13 | CC1=C(C(=O)OCCN(C)Cc2ccccc2)C(c2cccc([N+](=O)[O-])c2)C(P2(=O)OCCC(C)O2)=C(C)N1 (stereo not drawn) [Hydrochloride of Example 12] | 2.57 |  | 18 | 
14 | CC1=C(C(=O)OCCN(C)Cc2ccccc2)C(c2ccccc2C(F)(F)F)C(P2(=O)OCCC(C)O2)=C(C)N1 (stereo not drawn) [Hydrochloride of Example 13] | 12.3 |  | 39 | 
15 | CC1=C(C(=O)OCCN(C)Cc2ccccc2)C(c2cccc(Cl)c2)C(P2(=O)OCCC(C)O2)=C(C)N1 (stereo not drawn) [Hydrochloride of Example 14] | 3.02 |  | 14 | 
16 | CC1=C(C(=O)OCCN(C)Cc2ccccc2)C(c2ccccc2Cl)C(P2(=O)OCCC(C)O2)=C(C)N1 (stereo not drawn) [Hydrochloride of Example 15] | 3.24 |  | 38 | 
17 | CC1=C(C(=O)OCCN(C)Cc2ccccc2)C(c2cccc([N+](=O)[O-])c2)C(P2(=O)OCC(C)(C)CO2)=C(C)N1 (stereo not drawn) [Hydrochloride of Example 16] | 3.55 |  | 21 | 
18 | CC1=C(C(=O)OCCN(C)Cc2ccccc2)C(c2ccccc2C(F)(F)F)C(P2(=O)OCC(C)(C)CO2)=C(C)N1 (stereo not drawn) [Hydrochloride of Example 17] | 4.27 | 42 |  | 
19 | CC1=C(C(=O)OCCN(C)Cc2ccccc2)C(c2cccc(Cl)c2)C(P2(=O)OCC(C)(C)CO2)=C(C)N1 (stereo not drawn) [Hydrochloride of Example 18] | 4.47 |  | 17 | 
20 | CC1=C(C(=O)OCCN(C)Cc2ccccc2)C(c2ccccc2Cl)C(P2(=O)OCC(C)(C)CO2)=C(C)N1 (stereo not drawn) [Hydrochloride of Example 19] | 5.13 |  | 30 | 
21 | COC(=O)C1=C(C)NC(C)=C(P2(=O)OCCC(C)O2)C1c1ccccc1C(F)(F)F (stereo not drawn) [Hydrochloride of Example 20] | 2.04 | 32 |  | 
22 | COC(=O)C1=C(C)NC(C)=C(P2(=O)OC(C)CC(C)O2)C1c1ccccc1C(F)(F)F (stereo not drawn) [Hydrochloride of Example 21] | 1.91 | 35 |  | 
23 | COC(=O)C1=C(C)NC(C)=C(C(=O)OCCN(C)Cc2ccccc2)C1c1cccc([N+](=O)[O-])c1 (stereo not drawn) [Nicardipine, reference compound] | 0.417 | 34 |  | LD50 at 168 h ([3]; ip, i.p. (1% solution)): 166 mg/kg; LD50 at 168 h ([3]; po, p.o. (5% solution)): 561 mg/kg
24 | COC(=O)C1=C(C)NC(C)=C(C(=O)OC)C1c1ccccc1[N+](=O)[O-] [Nifedipine, reference compound] | 2.88 |  | 26 | 
